Experimental data published in PubChem BioAssay AID2060912 (Molecular Pharmacology Branch, DTP, NCI, 2025).

Test system: HUVEC/MSC spheroids viability
Assay: Human HUVEC/MSC cell line growth inhibition [KRAS2];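 as to viability, T/C: percent of DMSO vehicle control luminescence so 100% = untreated viability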
Conditions: for IC50: curve of first compound; for viability, T/C: stronger effect = lower value
In short: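 Growth/viability of tumour-free HUVEC–hMSC spheroids was measured after exposure to targeted small molecules and KRAS inhibitors, singly or in combination. Agents were diluted in half-log steps from Cmax-based top concentrations, capped at 10 microM without known Cmax.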

[1] = second compound 0.0316 µM, first compound 0.0316 µM
[2] = second compound 0.0316 µM, first compound 0.1 µM
[3] = second compound 0.0316 µM, first compound 0.316 µM
[4] = second compound 0.0316 µM, first compound 1 µM
[5] = second compound 0.0316 µM, first compound 3.16 µM
[6] = second compound 0.0316 µM, first compound 10 µM
[7] = second compound 0.1 µM, first compound 0.0316 µM
[8] = second compound 0.1 µM, first compound 0.1 µM
[9] = second compound 0.1 µM, first compound 0.316 µM
[10] = second compound 0.1 µM, first compound 1 µM
[11] = second compound 0.1 µM, first compound 3.16 µM
[12] = second compound 0.1 µM, first compound 10 µM
[13] = second compound 0.316 µM, first compound 0.0316 µM
[14] = second compound 0.316 µM, first compound 0.1 µM
[15] = second compound 0.316 µM, first compound 0.316 µM
[16] = second compound 0.316 µM, first compound 1 µM
[17] = second compound 0.316 µM, first compound 3.16 µM
[18] = second compound 0.316 µM, first compound 10 µM
[19] = second compound 1 µM, first compound 0.0316 µM
[20] = second compound 1 µM, first compound 0.1 µM
[21] = second compound 1 µM, first compound 0.316 µM
[22] = second compound 1 µM, first compound 1 µM
[23] = second compound 1 µM, first compound 3.16 µM
[24] = second compound 1 µM, first compound 10 µM
[25] = second compound 3.16 µM, first compound 0.0316 µM
[26] = second compound 3.16 µM, first compound 0.1 µM
[27] = second compound 3.16 µM, first compound 0.316 µM
[28] = second compound 3.16 µM, first compound 1 µM
[29] = second compound 3.16 µM, first compound 3.16 µM
[30] = second compound 3.16 µM, first compound 10 µM
[31] = second compound 10 µM, first compound 0.0316 µM
[32] = second compound 10 µM, first compound 0.1 µM
[33] = second compound 10 µM, first compound 0.316 µM
[34] = second compound 10 µM, first compound 1 µM
[35] = second compound 10 µM, first compound 3.16 µM
[36] = second compound 10 µM, first compound 10 µM

CC1OCC2(CCN(c3cnc(Sc4ccnc(N)c4Cl)c(N)n3)CC2)C1N (stereo not drawn) + CNCc1ccccc1-c1csc(C(C)Nc2nc(C)nc3cc(OC)c(OC)cc23)c1
IC50 (second compound 0.0316 µM): > 10 µM
IC50 (second compound 0.1 µM): 6.91 µM
IC50 (second compound 0.316 µM): 6.2 µM
IC50 (second compound 1 µM): 6.91 µM
IC50 (second compound 3.16 µM): 4.95 µM
IC50 (second compound 10 µM): < 0.0316 µM
viability, T/C [1]: 90.2%
viability, T/C [2]: 104%
viability, T/C [3]: 86.8%
viability, T/C [4]: 80.1%
viability, T/C [5]: 83.1%
viability, T/C [6]: 51.9%
viability, T/C [7]: 94.5%
viability, T/C [8]: 108%
viability, T/C [9]: 90.4%
viability, T/C [10]: 74.2%
viability, T/C [11]: 68%
viability, T/C [12]: 42.5%
viability, T/C [13]: 90.2%
viability, T/C [14]: 81.9%
viability, T/C [15]: 78.2%
viability, T/C [16]: 69.9%
viability, T/C [17]: 70.3%
viability, T/C [18]: 38.5%
viability, T/C [19]: 74.6%
viability, T/C [20]: 104%
viability, T/C [21]: 79.1%
viability, T/C [22]: 67.4%
viability, T/C [23]: 68.8%
viability, T/C [24]: 42.5%
viability, T/C [25]: 90.8%
viability, T/C [26]: 98.7%
viability, T/C [27]: 82%
viability, T/C [28]: 89.2%
viability, T/C [29]: 78.9%
viability, T/C [30]: 4.77%
viability, T/C [31]: 0.35%
viability, T/C [32]: 0.39%
viability, T/C [33]: 0.53%
viability, T/C [34]: 0.42%
viability, T/C [35]: 0.4%
viability, T/C [36]: 0.25%

O=C(c1cc(Cc2n[nH]c(=O)c3ccccc23)ccc1F)N1CCN(C(=O)C2CC2)CC1 + CNCc1ccccc1-c1csc(C(C)Nc2nc(C)nc3cc(OC)c(OC)cc23)c1
IC50 (second compound 0.0316 µM): > 10 µM
IC50 (second compound 0.1 µM): > 10 µM
IC50 (second compound 0.316 µM): > 10 µM
IC50 (second compound 1 µM): > 10 µM
IC50 (second compound 3.16 µM): > 10 µM
IC50 (second compound 10 µM): < 0.0316 µM
viability, T/C [1]: 95.6%
viability, T/C [2]: 92.6%
viability, T/C [3]: 93.1%
viability, T/C [4]: 84.2%
viability, T/C [5]: 80.3%
viability, T/C [6]: 72%
viability, T/C [7]: 87.1%
viability, T/C [8]: 91.4%
viability, T/C [9]: 92.1%
viability, T/C [10]: 78.2%
viability, T/C [11]: 81.9%
viability, T/C [12]: 96%
viability, T/C [13]: 84.6%
viability, T/C [14]: 92.2%
viability, T/C [15]: 76.7%
viability, T/C [16]: 92.3%
viability, T/C [17]: 89.8%
viability, T/C [18]: 93.9%
viability, T/C [19]: 70%
viability, T/C [20]: 84.7%
viability, T/C [21]: 85.5%
viability, T/C [22]: 81.1%
viability, T/C [23]: 78%
viability, T/C [24]: 104%
viability, T/C [25]: 95.7%
viability, T/C [26]: 87.8%
viability, T/C [27]: 98.2%
viability, T/C [28]: 105%
viability, T/C [29]: 92.3%
viability, T/C [30]: 95.8%
viability, T/C [31]: 0.39%
viability, T/C [32]: 0.43%
viability, T/C [33]: 0.37%
viability, T/C [34]: 0.34%
viability, T/C [35]: 0.39%
viability, T/C [36]: 0.41%

COc1cc(Nc2ncc3c(n2)-c2ccc(Cl)cc2C(c2c(F)cccc2OC)=NC3)ccc1C(=O)O + C=CC(=O)N1CCN(c2nc(=O)n(-c3c(C)ccnc3C(C)C)c3nc(-c4c(O)cccc4F)c(F)cc23)C(C)C1
IC50 (second compound 0.0316 µM): > 10 µM
IC50 (second compound 0.1 µM): > 10 µM
IC50 (second compound 0.316 µM): > 10 µM
IC50 (second compound 1 µM): > 10 µM
IC50 (second compound 3.16 µM): > 10 µM
IC50 (second compound 10 µM): > 10 µM
viability, T/C [1]: 94.8%
viability, T/C [2]: 125%
viability, T/C [3]: 99%
viability, T/C [4]: 109%
viability, T/C [5]: 106%
viability, T/C [6]: 71.6%
viability, T/C [7]: 103%
viability, T/C [8]: 109%
viability, T/C [9]: 108%
viability, T/C [10]: 111%
viability, T/C [11]: 106%
viability, T/C [12]: 56.3%
viability, T/C [13]: 111%
viability, T/C [14]: 114%
viability, T/C [15]: 93.8%
viability, T/C [16]: 116%
viability, T/C [17]: 106%
viability, T/C [18]: 69.3%
viability, T/C [19]: 122%
viability, T/C [20]: 127%
viability, T/C [21]: 115%
viability, T/C [22]: 127%
viability, T/C [23]: 117%
viability, T/C [24]: 72.9%
viability, T/C [25]: 110%
viability, T/C [26]: 123%
viability, T/C [27]: 110%
viability, T/C [28]: 96.3%
viability, T/C [29]: 109%
viability, T/C [30]: 83.3%
viability, T/C [31]: 136%
viability, T/C [32]: 129%
viability, T/C [33]: 154%
viability, T/C [34]: 120%
viability, T/C [35]: 101%
viability, T/C [36]: 66.8%

COc1cc2nccc(Oc3ccc(NC(=O)C4(C(=O)Nc5ccc(F)cc5)CC4)cc3)c2cc1OC + C=CC(=O)N1CCN(c2nc(OCC3CCCN3C)nc3c2CCN(c2cccc4cccc(C)c24)C3)CC1CC#N
IC50 (second compound 0.00949 µM): 4.77 µM
IC50 (second compound 0.03 µM): 5.94 µM
IC50 (second compound 0.0949 µM): 8.74 µM
IC50 (second compound 0.3 µM): 7.29 µM
IC50 (second compound 0.949 µM): > 10 µM
IC50 (second compound 3 µM): 3.8 µM
viability, T/C (second compound 0.00949 µM, first compound 0.0316 µM): 88.1%
viability, T/C (second compound 0.00949 µM, first compound 0.1 µM): 102%
viability, T/C (second compound 0.00949 µM, first compound 0.316 µM): 71.1%
viability, T/C (second compound 0.00949 µM, first compound 1 µM): 65.7%
viability, T/C (second compound 0.00949 µM, first compound 3.16 µM): 76.6%
viability, T/C (second compound 0.00949 µM, first compound 10 µM): 22%
viability, T/C (second compound 0.03 µM, first compound 0.0316 µM): 70.9%
viability, T/C (second compound 0.03 µM, first compound 0.1 µM): 80.5%
viability, T/C (second compound 0.03 µM, first compound 0.316 µM): 77.1%
viability, T/C (second compound 0.03 µM, first compound 1 µM): 59.8%
viability, T/C (second compound 0.03 µM, first compound 3.16 µM): 77.8%
viability, T/C (second compound 0.03 µM, first compound 10 µM): 30.8%
viability, T/C (second compound 0.0949 µM, first compound 0.0316 µM): 82.5%
viability, T/C (second compound 0.0949 µM, first compound 0.1 µM): 78.6%
viability, T/C (second compound 0.0949 µM, first compound 0.316 µM): 74%
viability, T/C (second compound 0.0949 µM, first compound 1 µM): 77.4%
viability, T/C (second compound 0.0949 µM, first compound 3.16 µM): 88.1%
viability, T/C (second compound 0.0949 µM, first compound 10 µM): 46%
viability, T/C (second compound 0.3 µM, first compound 0.0316 µM): 61.5%
viability, T/C (second compound 0.3 µM, first compound 0.1 µM): 80.8%
viability, T/C (second compound 0.3 µM, first compound 0.316 µM): 85.7%
viability, T/C (second compound 0.3 µM, first compound 1 µM): 63.9%
viability, T/C (second compound 0.3 µM, first compound 3.16 µM): 86.6%
viability, T/C (second compound 0.3 µM, first compound 10 µM): 40.4%
viability, T/C (second compound 0.949 µM, first compound 0.0316 µM): 61.9%
viability, T/C (second compound 0.949 µM, first compound 0.1 µM): 71.8%
viability, T/C (second compound 0.949 µM, first compound 0.316 µM): 73.3%
viability, T/C (second compound 0.949 µM, first compound 1 µM): 83%
viability, T/C (second compound 0.949 µM, first compound 3.16 µM): 75.9%
viability, T/C (second compound 0.949 µM, first compound 10 µM): 38.5%
viability, T/C (second compound 3 µM, first compound 0.0316 µM): 75.9%
viability, T/C (second compound 3 µM, first compound 0.1 µM): 80.4%
viability, T/C (second compound 3 µM, first compound 0.316 µM): 92.4%
viability, T/C (second compound 3 µM, first compound 1 µM): 84.1%
viability, T/C (second compound 3 µM, first compound 3.16 µM): 59.4%
viability, T/C (second compound 3 µM, first compound 10 µM): 0.35%
